Converted amounts (≈) assume the structure as drawn.
Assay: physchem
Details: 60 °C, thermodynamic from solid
Method: • (6) Solubility of Nitrogen-Containing Additive
After 100 mg of the nitrogen-containing additive and 1 L of a solvent were mixed, the resulting mixture was stirred at a rotational speed of 200 rpm at 60° C. for 1 hour using a mixing machine to dissolve the nitrogen-containing additive.

Structure (SMILES) | solubility at 1 h (aqueous buffer) [µg/mL] | solubility at 1 h (water) [µg/mL]
Nc1cc2cccnc2c2ncccc12 [5-amino-1,10-phenanthroline, reference compound] | ≥ 100 | ≥ 100
c1cc(-c2ccc3ccc4cccnc4c3n2)cc(-c2ccc3ccc4cccnc4c3n2)c1 [ADT-1] | 5 (≈ 11.5 µM) | < 0.1
c1cnc2c(c1)ccc1ccc(-c3ccc(-c4ccc5ccc6cccnc6c5n4)cc3)nc12 [ADT-3] | 4.2 (≈ 9.67 µM) | < 0.1
c1cnc2c(c1)ccc1ccc(-c3ccc4ccc(-c5ccc6ccc7cccnc7c6n5)cc4c3)nc12 [ADT-5] | 4 (≈ 8.25 µM) | < 0.1
c1ccc(-c2ccc(-c3ccc4ccc5cccnc5c4n3)cc2)c(-c2ccc(-c3ccc4ccc5cccnc5c4n3)cc2)c1 [ADT-8] | 3.3 (≈ 5.62 µM) | < 0.1
c1cc(-c2ccc(-c3ccc4ccc5cccnc5c4n3)cc2)cc(-c2ccc(-c3ccc4ccc5cccnc5c4n3)cc2)c1 [ADT-9] | 3 (≈ 5.11 µM) | < 0.1
c1cc(-c2cccc(-c3ccc4ccc5cccnc5c4n3)c2)cc(-c2cccc(-c3ccc4ccc5cccnc5c4n3)c2)c1 [ADT-10] | 3.6 (≈ 6.14 µM) | < 0.1
CC(C)(C)c1ccc(-c2ccc3ccc4ccc(-c5cccc(-c6ccc7ccc8ccc(-c9ccc(C(C)(C)C)cc9)nc8c7n6)c5)nc4c3n2)cc1 [ADT-11] | 2.9 (≈ 4.15 µM) | < 0.1
Cc1cc(C)cc(-c2ccc3ccc4ccc(-c5cccc(-c6ccc7ccc8ccc(-c9cc(C)cc(C)c9)nc8c7n6)c5)nc4c3n2)c1 [ADT-12] | 3.1 (≈ 4.82 µM) | < 0.1
Cc1ccc(-c2ccc3ccc4ccc(-c5cccc(-c6ccc7ccc8ccc(-c9ccc(C)cc9)nc8c7n6)c5)nc4c3n2)cc1 [ADT-13] | 3.2 (≈ 5.21 µM) | < 0.1
c1cc(-c2ccc3ccc4ccc(-c5cccc6ccccc56)nc4c3n2)cc(-c2ccc3ccc4ccc(-c5cccc6ccccc56)nc4c3n2)c1 [ADT-14] | 2.8 (≈ 4.08 µM) | < 0.1
c1ccc(-c2ccc3ccc4ccc(-c5ccc(-c6ccc7ccc8ccc(-c9ccccc9)nc8c7n6)cc5)nc4c3n2)cc1 [ADT-15] | 2.5 (≈ 4.26 µM) | < 0.1
c1cnc2c(c1)ccc1ccc(-c3ccc(C(c4ccc(-c5ccc6ccc7cccnc7c6n5)cc4)(c4ccc(-c5ccc6ccc7cccnc7c6n5)cc4)c4ccc(-c5ccc6ccc7cccnc7c6n5)cc4)cc3)nc12 [ADT-19] | < 0.1 | < 0.1
Nc1ccc(-c2ccc3ccc4ccc(-c5cccc(-c6ccc7ccc8ccc(-c9ccc(N)cc9)nc8c7n6)c5)nc4c3n2)cc1 [ADT-20] | 7.5 (≈ 12.2 µM) | < 0.1
O=S(=O)(O)c1ccc(-c2ccc3ccc4ccc(-c5cccc(-c6ccc7ccc8ccc(-c9ccc(S(=O)(=O)O)cc9)nc8c7n6)c5)nc4c3n2)cc1 [ADT-21] | 6.3 (≈ 8.44 µM) | < 0.1

More lines, now with the values ahead:

solubility at 1 h (aqueous buffer) [µg/mL] | solubility at 1 h (water) [µg/mL] | Structure (SMILES)
≥ 100 | ≥ 100 | c1cnc2c(c1)ccc1cccnc12 [1,10-phenanthroline, reference compound]
3.4 (≈ 5.8 µM) | < 0.1 | c1ccc(-c2ccc3ccc4ccc(-c5cccc(-c6ccc7ccc8ccc(-c9ccccc9)nc8c7n6)c5)nc4c3n2)cc1 [ADT-2]
1.9 (≈ 2.77 µM) | < 0.1 | c1ccc2c(-c3ccc4ccc5ccc(-c6ccc(-c7ccc8ccc9ccc(-c%10cccc%11ccccc%10%11)nc9c8n7)cc6)nc5c4n3)cccc2c1 [ADT-4]
2.6 (≈ 4.08 µM) | < 0.1 | c1ccc(-c2ccc3ccc4ccc(-c5ccc6ccc(-c7ccc8ccc9ccc(-c%10ccccc%10)nc9c8n7)cc6c5)nc4c3n2)cc1 [ADT-6]
4.5 (≈ 9.29 µM) | < 0.1 | c1cnc2c(c1)ccc1ccc(-c3cccc4c(-c5ccc6ccc7cccnc7c6n5)cccc34)nc12 [ADT-7]
2.8 (≈ 4.01 µM) | < 0.1 | CC(C)(C)c1ccc(-c2ccc3ccc4ccc(-c5ccc(-c6ccc7ccc8ccc(-c9ccc(C(C)(C)C)cc9)nc8c7n6)cc5)nc4c3n2)cc1 [ADT-16]
4.6 (≈ 9.01 µM) | < 0.1 | c1cc(-c2cccc(-c3ccc4ccc5cccnc5c4n3)c2)cc(-c2ccc3ccc4cccnc4c3n2)c1 [ADT-17]
1.3 (≈ 2.12 µM) | < 0.1 | c1cnc2c(c1)ccc1ccc(-c3cc(-c4ccc5ccc6cccnc6c5n4)cc(-c4ccc5ccc6cccnc6c5n4)c3)nc12 [ADT-18]

Reference: patent US9748593B2, “Polymer electrolyte composition, and polymer electrolyte membrane, membrane electrode complex and solid polymer-type fuel cell each produced using same” (TORAY INDUSTRIES, INC., priority 2012, dated 2017)
